Among the data in patent US20090264415A2 (priority 2004, published 2009) are IC50 values, retold here.

Each structure is given as a SMILES string.

The test relates to peripheral blood mononuclear cells (PBMC) stimulated with allogeneic PBMC or EBV-transformed human B cells (RPMI1788). Nature of the test: Mixed lymphocyte reaction (MLR) assay. The format is cell-based. Particulars: Homo sapiens, RPMI-1788; MLR assay of example 319; read-out: MLR IC50. Summed up:
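Responder PBMC co-cultured in triplicate with 30 Gy-irradiated allogeneic PBMC or RPMI1788 B cells plus compound (DMSO stock 10 mM, diluted in medium). After 5 days at 37° C, 1 μCi [3H]-thymidine added for 16 h more; incorporated cpm counted and proliferation inhibition calculated.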
Usually IC50 stands for the point on the concentration scale where inhibition reaches its midpoint. Take `Nc1nc(N2CCN(C(=O)COc3ccc(Cl)cc3)CC2)c2nc(-c3c(F)cccc3Cl)ccc2n1` [Example 442, 2-amino-4-[4-(4-chlorophenoxyacetyl)piperazin-1-yl]-6-(2-chloro-6-fluorophenyl)-pyrido-[3,2-d]pyrimidine]: the half-maximal inhibitory concentration (IC50) worked out at 300 nM. In the case of `CNC(=O)c1ccc(-c2ccc3nc(N)nc(N4CCN(C(=O)COc5ccc(Cl)cc5)CC4)c3n2)cc1` [Example 443, 2-amino-4-[4-(4-chlorophenoxyacetyl)piperazin-1-yl]-6-[4-(methylaminocarbonyl)phenyl]-pyrido-[3,2-d]pyrimidine], the IC50 turned out to be 7 nM. As for `NCC(=O)N1CCN(c2nc(N)nc3ccc(-c4ccc(F)cc4)nc23)CC1` [Example 444, 2-amino-4-[4-(aminoacetyl)-piperazin-1-yl]-6-(4-fluorophenyl)-pyrido[3,2-d]pyrimidine], the IC50 was found to be 2300 nM. Regarding `Cc1ccc(-c2ccc3nc(N)nc(N4CCN(C(=O)COc5ccc(Cl)cc5)CC4)c3n2)cc1` [Example 445, 2-amino-4-[4-(4-chlorophenoxyacetyl)piperazin-1-yl]-6-(4-methylphenyl)pyrido-[3,2-d]pyrimidine], the IC50 was 29 nM. As for `CC(=O)c1ccc(-c2ccc3nc(N)nc(N4CCN(C(=O)COc5ccc(Cl)cc5)CC4)c3n2)cc1` [Example 446, 2-amino-4-[4-(4-chlorophenoxyacetyl)piperazin-1-yl]-6-(4-acetylphenyl)pyrido-[3,2-d]pyrimidine], the figure is 11 nM; as for `NCc1ccc(-c2ccc3nc(N)nc(N4CCN(C(=O)COc5ccc(Cl)cc5)CC4)c3n2)cc1` [Example 447, 2-amino-4-[4-(4-chlorophenoxyacetyl)piperazin-1-yl]-6-[4-(aminomethyl)phenyl]pyrido-[3,2-d]pyrimidine], 400 nM. The figure for `Nc1nc(N2CCN(C(=O)COc3ccc(Cl)cc3)CC2)c2nc(-c3ccc(C(=O)NC4CC4)cc3)ccc2n1` [Example 448, 2-amino-4-[4-(4-chlorophenoxyacetyl)piperazin-1-yl]-6-[4-(cyclopropylaminocarbonyl)phenyl]-pyrido-[3,2-d]pyrimidine] is 15 nM; for `CC(=O)Nc1ccc(-c2ccc3nc(N)nc(N4CCN(C(=O)COc5ccc(Cl)cc5)CC4)c3n2)cc1` [Example 449, 2-amino-4-[4-(4-chlorophenoxyacetyl)piperazin-1-yl]-6-[4-(acetamido)phenyl]-pyrido-[3,2-d]pyrimidine] it is 39 nM; for `CCNC(=O)N1CCN(c2nc(N)nc3ccc(-c4ccc(F)cc4)nc23)CC1` [Example 450, 2-amino-4-[4-(N-ethylcarbamoyl)-piperazin-1-yl]-6-(4-fluorophenyl)-pyrido[3,2-c]pyrimidine] it is 500 nM. As for `CCCCNC(=O)N1CCN(c2nc(N)nc3ccc(-c4ccc(F)cc4)nc23)CC1` [Example 451, 2-amino-4-[4-(N-butylcarbamoyl)-piperazin-1-yl]-6-(4-fluorophenyl)-pyrido[3,2-d]pyrimidine], the figure is 200 nM; as for `CNC(=O)N1CCN(c2nc(N)nc3ccc(-c4ccc(F)cc4)nc23)CC1` [Example 452, 2-amino-4-[4-(N-methylcarbamoyl)-piperazin-1-yl]-6-(4-fluorophenyl)-pyrido[3,2-d]pyrimidine], 400 nM; as for `Nc1nc(N2CCN(C(=O)NC34CC5CC(CC(C5)C3)C4)CC2)c2nc(-c3ccc(F)cc3)ccc2n1` [Example 453, 2-amino-4-{4-[N-(1-adamantylcarbamoyl)]-piperazin-1-yl}-6-(4-fluorophenyl)-pyrido[3,2-d]pyrimidine], 4000 nM. `Nc1nc(N2CCN(C(=O)NC3CCCC3)CC2)c2nc(-c3ccc(F)cc3)ccc2n1` [Example 454, 2-amino-4-[4-(N-cyclopentylcarbamoyl)-piperazin-1-yl]-6-(4-fluorophenyl)-pyrido[3,2-d]pyrimidine]: the IC50 was 400 nM. As to `Nc1nc(N2CCN(C(=O)Nc3ccc(Cl)cc3)CC2)c2nc(-c3ccc(F)cc3)ccc2n1` [Example 455, 2-amino-4-[4-[N-(4-chlorophenyl)carbamoyl]-piperazin-1-yl]-6-(4-fluorophenyl)-pyrido[3,2-d]pyrimidine], the IC50 came to 70 nM. As to `CC(C)(C)OC(=O)N1CCCC(Nc2nc(N)nc3ccc(-c4ccc(F)cc4)nc23)C1` (stereo not drawn) [Example 457, 2-amino-4-[1-(tert-butoxycarbonyl)piperid-3-ylamino]-6-(4-fluorophenyl)-pyrido[3,2-d]pyrimidine], the IC50 was 6600 nM. As for `Nc1nc(N2CCN(C(=O)OCc3ccccc3)CC2)c2nc(-c3ccc(F)cc3)ccc2n1` [Example 458, 2-amino-4-[4-(benzyloxycarbonyl)-piperazin-1-yl]-6-(4-fluorophenyl)-pyrido[3,2-d]pyrimidine], the figure is 700 nM; as for `Nc1nc(N2CCN(CC(=O)NCCc3ccccc3)CC2)c2nc(-c3ccc(F)cc3)ccc2n1` [Example 459, 2-amino-4-[4-[2-(phenyl)ethylcarbamylmethyl]-piperazin-1-yl]-6-(4-fluorophenyl)-pyrido[3,2-f]pyrimidine], 500 nM. The figure for `CC(C)(C)OC(=O)N1CCC(Nc2nc(N)nc3ccc(-c4ccc(F)cc4)nc23)CC1` [Example 461, 2-amino-4-[1-(tert-butoxycarbonyl)piperid-4-ylamino]-6-(4-fluorophenyl)-pyrido[3,2-d]pyrimidine] is 4000 nM; for `COCC(=O)N1CCN(c2nc(N)nc3ccc(-c4ccc(F)cc4)nc23)CC1` [Example 462, 2-amino-4-[4-(methoxyacetyl)piperazin-1-yl]-6-(4-fluorophenyl)-pyrido[3,2-d]pyrimidine] it is 400 nM; for `CCN(CC)C(=O)N1CCN(c2nc(N)nc3ccc(-c4ccc(F)cc4)nc23)CC1` [Example 463, 2-amino-4-[4-(diethylcarbamoyl)piperazin-1-yl]-6-(4-fluorophenyl)-pyrido[3,2-d]pyrimidine] it is 600 nM. As for `CN(C)C(=O)N1CCN(c2nc(N)nc3ccc(-c4ccc(F)cc4)nc23)CC1` [Example 464, 2-amino-4-[4-(dimethylcarbamoyl)piperazin-1-yl]-6-(4-fluorophenyl)-pyrido[3,2-d]pyrimidine], the figure is 800 nM; as for `CC(C)N(C(=O)N1CCN(c2nc(N)nc3ccc(-c4ccc(F)cc4)nc23)CC1)C(C)C` [Example 465, 2-amino-4-[4-(diisopropylcarbamoyl)piperazin-1-yl]-6-(4-fluorophenyl)-pyrido[3,2-d]pyrimidine], 3000 nM. For `Nc1nc(N2CCN(C(=O)N3CCOCC3)CC2)c2nc(-c3ccc(F)cc3)ccc2n1` [Example 466, 2-amino-4-[4-(morpholinocarbonyl)piperazin-1-yl]-6-(4-fluorophenyl)-pyrido[3,2-d]pyrimidine], the IC50 was 2500 nM. The figure for `CC(C)C(C(=O)N1CCN(c2nc(N)nc3ccc(-c4ccc(F)cc4)nc23)CC1)c1ccc(Cl)cc1` (stereo not drawn) [Example 467, 2-amino-4-{4-[2-(4-chlorophenyl)-3-methylbutyryl]-piperazin-1-yl}-6-(4-fluorophenyl)-pyrido[3,2-d]pyrimidine] is 4700 nM; for `CC(Cl)C(=O)N1CCN(c2nc(N)nc3ccc(-c4ccc(F)cc4)nc23)CC1` (stereo not drawn) [Example 468, 2-amino-4-[4-(2-chloropropionyl)piperazin-1-yl]-6-(4-fluorophenyl)-pyrido[3,2-d]pyrimidine] it is 3200 nM.

As for `Nc1nc(N2CCN(C(=O)Oc3ccc(Cl)cc3)CC2)c2nc(-c3ccc(F)cc3)ccc2n1` [Example 469, 2-amino-4-[4-(4-chlorophenoxycarbonyl)piperazin-1-yl]-6-(4-fluorophenyl)-pyrido[3,2-d]pyrimidine], the IC50 is 500 nM.

On to `CC(C)(Oc1ccc(Cl)cc1)C(=O)N1CCN(c2nc(N)nc3ccc(-c4ccc(F)cc4)nc23)CC1` [Example 472, 2-amino-4-{4-[2-(4-chlorophenoxy)-2-methylpropionyl]-piperazin-1-yl}-6-(4-fluorophenyl)-pyrido[3,2-d]pyrimidine], for which the half-inhibitory concentration (IC50) was greater than 10000 nM. As for `Nc1nc(N2CCN(C(=O)CCOc3ccc(Cl)cc3)CC2)c2nc(-c3ccc(F)cc3)ccc2n1` [Example 473, 2-amino-4-{4-[3-(4-chlorophenoxy)propionyl]-piperazin-1-yl}-6-(4-fluorophenyl)-pyrido[3,2-d]pyrimidine], the figure is 500 nM; as for `CC(Oc1ccccc1)C(=O)N1CCN(c2nc(N)nc3ccc(-c4ccc(F)cc4)nc23)CC1` (stereo not drawn) [Example 474, 2-amino-4-[4-(2-phenoxypropionyl)piperazin-1-yl]-6-(4-fluorophenyl)-pyrido[3,2-d]pyrimidine], 1000 nM. The figure for `Nc1nc(N2CCN(CC(=O)OCc3ccc(Cl)cc3)CC2)c2nc(-c3ccc(F)cc3)ccc2n1` [Example 475, {4-[2-amino-6-(4-fluorophenyl)-pyrido[3,2-d]pyrimidin-4-yl]-piperazin-1-yl}-acetic acid 4-chloro-benzyl ester] is 4200 nM. As for `Nc1nc(N2CCN(C(=O)CNC(=O)c3ccc(Cl)cc3)CC2)c2nc(-c3ccc(F)cc3)ccc2n1` [Example 476, N-(2-{4-[2-amino-6-(4-fluorophenyl)-pyrido[3,2-d]pyrimidin-4-yl]-piperazin-1-yl}-2-oxoethyl)-4-chlorobenzamide], the figure is 60 nM; as for `Nc1nc(N2CCN(C(=O)CNC(=O)c3ccccc3)CC2)c2nc(-c3ccc(F)cc3)ccc2n1` [Example 478, N-(2-{4-[2-amino-6-(4-fluorophenyl)-pyrido[3,2-d]pyrimidin-4-yl]-piperazin-1-yl}-2-oxoethyl)benzamide], 5 nM. `Nc1nc(NC2CCN(C(=O)COc3ccc(Cl)cc3)CC2)c2nc(-c3ccc(F)cc3)ccc2n1` [Example 480, 2-amino-4-[1-(4-chlorophenoxyacetyl)piperid-4-ylamino]-6-(4-fluorophenyl)-pyrido[3,2-d]pyrimidine]: the IC50 worked out at 2200 nM.
